Tested on: PGE2 levels in exudate (carrageenan-challenged air pouch)
Experiment: Air pouch assay of acute inflammation measuring exudate volume and PGE2 levels in exudate in rats
Type: in vivo, Sprague-Dawley rats
Details: rat air pouch; for PGE2 (pg/mL), mean in exudate / Volume (mL), mean collected exudate volume: 0.01 mmol/kg oral 2 h before 1% carrageenan, exudate 4 h after carrageenan, group mean, 5 rats/group; for PGE2 (pg/mL), mean in exudate: ELISA; for effect on the carrageenan-induced increase in PGE2 release / effect on the carrageenan-induced increase in exudate volume / reduction in collected exudate volume / reduction in exudate PGE2 release: 0.01 mmol/kg oral pretreatment; for effect on the carrageenan-induced increase in PGE2 release / effect on the carrageenan-induced increase in exudate volume: result in words; for reduction in collected exudate volume / reduction in exudate PGE2 release: vs vehicle
Procedure: Compound Testing in the Air Pouch Assay of Acute Inflammation Measuring PGE2 Levels in Exudate in Rats
Animals: Sprague-Dawley rats (Charles River Laboratories., R #3234, PO #738990, male, 160-180 g) were received, individually examined, and housed in cages of five rats each. The rats were ear notched for identification purposes.
Compounds and Dosing Solutions: The vehicle was prepared by dissolving 40 g (2-hydroxypropyl)-β-cyclodextrin (HP-β-CD, Sigma, Cat. 332593, lot MKBJ5858V) in 160 mL sterile saline for injection, USP (Hospira, lot 26-801-FW) making a 25% solution which was filter sterilized (0.2 μm, Nalgene, Cat. 151-4020, lot 1095610). A 1% carrageenan solution was prepared by dissolving […] (Fluka, Cat. 22049, lot 1318338) in hot 60 mL sterile saline for injection, USP. This solution was stored at 4-8° C. Test compounds were dissolved in DMSO (Fisher Scientific, Cat. D128-500, lot 874999) to make 75 mM stocks. 0.25 mL of compound DMSO stocks were mixed with 12.5 mL of HP-13-CD solution at 50° C. (maximum DMSO concentration was 2% of the final volume of vehicle,). Final concentration of all test compounds was 1.5 mM and compounds were dosed within 2 hours of preparation at 0.01 mmol/kg (12 […] of test compound per rat).
Day 0—Air Pouch Initiation: The rats were anesthetized in a biological cabinet, the nape of the neck was cleansed with 70% isopropanol (Butler Schein Animal Health, Cat. 002498, lot 29EMS07104547) followed by 1% povidone-iodine solution (Ricca Chemical Co., Cat. 3955-16, lot 2205469). Twenty mL of sterile (0.22 μm, Millipore, Cat. SLGP033RS, lot R2KA55925, exp August 2015) air was injected subcutaneously (SC) using a 23G×1½ inch needle fixed to a 20 mL syringe. The rats were returned to routine housing. No adverse reactions were observed.
Day 3—Air Pouch Maintenance: The rats were anesthetized in a biological cabinet, the nape of the neck was cleansed with 70% isopropanol followed by 1% povidone-iodine solution. Ten mL of sterile air was injected SC using a 23G×1½ inch needle fixed to a 20 mL syringe. The rats were returned to routine housing in clean cages. No adverse reactions were observed.
Day 6—Compound Administration and Carrageenan Insult: At commencement of the study, each rat was weighed and sorted into treatment groups of 5 rats/group based upon average weight. Each rat was dosed orally via gavage at 6.809 mL/kg (1.6 mL/235 g) with their respective test material/vehicle. Two hours after test material/vehicle administration, the rats were injected with 1.0 mL of the room temperature 1% carrageenan saline solution into the air pouch. Four hours after carrageenan injection, the rats were anesthetized and 5 mL of the exudate buffer was injected into the air pouch. The pouch was gently massaged, the exudate immediately removed, and exudate volume recorded. The exudate was collected in a serum separator tube on an ice bath. The exudates were centrifuged (refrigerated) and an aliquot of the supernatant was stored in a labeled Eppendorf tube at −80° C.
Termination of Study: Animals were euthanized via CO2 asphyxiation at the completion of the in-life portion of this study and carcasses were disposed of according to standard protocols.
Data Analysis: The exudate samples were thawed to room temperature and assayed by ELISA for PGE2 (R&D Systems, Cat. KGE004B, lot 307711). Statistical significance of treatments on mean exudate volumes are determined by comparison of means for treatment groups with vehicle group. Mean cytokine concentrations and standard deviations are determined for each group. Statistical significance of treatments on cytokine concentrations are determined for each compound group compared to vehicle group. Statistical significance (p-value) was calculated vs control groups by Student's t-Test.

## Cc1ccc(-c2cc(C(F)(F)F)nn2-c2ccc(S(=O)(=O)NC(=O)OCCN(C)/[N+]([O-])=N/OCOC(=O)C(C)(C)C)cc2)cc1 [Compound 202, (Z)-5,12,12-Trimethyl-1,11-dioxo-1-(4-(5-(p-tolyl)-3-(trifluoromethyl)-1H-pyrazol-1-yl)phenylsulfonamido)-2,8,10-trioxa-5,6,7-triazatridec-6-ene 6-oxide]
  PGE2 (pg/mL), mean in exudate: 4959.1 pg/mL
  Volume (mL), mean collected exudate volume: 5.6 mL
  effect on the carrageenan-induced increase in PGE2 release: did not show any effect
  effect on the carrageenan-induced increase in exudate volume: did not show any effect

## CN(CCO)/[N+]([O-])=N/OCOC(=O)C(C)(C)C [Compound N402, (Z)-3-(2-Hydroxyethyl)-3-methyl-1-((pivaloyloxy)methoxy)triaz-1-ene 2-oxide]
  PGE2 (pg/mL), mean in exudate: 3782.4 pg/mL
  Volume (mL), mean collected exudate volume: 5.4 mL
  effect on the carrageenan-induced increase in PGE2 release: did not show any effect
  effect on the carrageenan-induced increase in exudate volume: did not show any effect

## Cc1ccc(-c2cc(C(F)(F)F)nn2-c2ccc(S(N)(=O)=O)cc2)cc1 [Celecoxib, 4-(5-(p-Tolyl)-3-(trifluoromethyl)-1H-pyrazol-1-yl)benzenesulfonamide, reference compound]
  PGE2 (pg/mL), mean in exudate: 907.1 pg/mL
  Volume (mL), mean collected exudate volume: 4.6 mL
  reduction in collected exudate volume: 19%
  reduction in exudate PGE2 release: 80%

## Cc1ccc(-c2cc(C(F)(F)F)nn2-c2ccc(S(=O)(=O)NC(=O)CN(C)/[N+]([O-])=N/OCOC(=O)C(C)(C)C)cc2)cc1 [Compound 602, (Z)-3-Methyl-3-(2-oxo-2-(4-(5-(p-tolyl)-3-(trifluoromethyl)-1H-pyrazol-1-yl)phenylsulfonamido)ethyl)-1-((pivaloyloxy)methoxy)triaz-1-ene 2-oxide]
  PGE2 (pg/mL), mean in exudate: 1915.2 pg/mL
  Volume (mL), mean collected exudate volume: 4.5 mL
  reduction in collected exudate volume: 20%
  reduction in exudate PGE2 release: 56%

From patent publication US8859781B2, “No-releasing nonoate(nitrogen-bound)sulfonamide-linked-coxib anti-cancer agents” (Euclises Pharmaceuticals, Inc., priority 2012, dated 2014)
